Assays:
[1] = estimated / in the order of; cited from earlier work
[2] = system: patients' biofilm; experiment: Tests performed on patients' biofilm
[3] = type: physicochemical
Source text: The pKa and the Ka values are based on literature references, which include: • E. P. Serjeant and B. Dempsey (eds.), Ionization Constants of Organic Acids in Solution, IUPAC Chemical Data Series No. 23, Pergamon Press, Oxford, UK, 1979; • Part of Journal of Research of the National Bureau of Standards. Volume 31, December 1943, pH VALUES OF ACID.SALT MIXTURES OF SOME AROMATIC SULFONIC ACIDS AT VARIOUS TEMPERATURES AND A CRITERION OF COMPLETENESS OF DISSOCIATION, By Walter j. Hamer. Gladys D. Pinching, and S. F. Acree; • Guthrie, J. P. Hydrolysis of esters of oxy acids: pKa values for strong acids. Can. J. Chem. 1978, 56, 2342-2354;

| acid form remaining undissociated upon contact with the biofilm [3] | Structure (SMILES) | acid dissociation constant, Ka [1] | antimicrobial activity [2] |
| --- | --- | --- | --- |
|  | Cc1cccc(S(=O)(=O)O)c1 [3-methylbenzenesulphonic acid] | ~600 | considerable antimicrobial activity |
|  | CCc1ccc(S(=O)(=O)O)cc1 [4-Ethylbenzenesulphonic acid] | ~600 | considerable antimicrobial activity |
| about 57% | CCCCCCCCCCCCc1ccc(S(=O)(=O)O)cc1 [4-dodecylbenzenesulphonic acid] | 2-3 |  |
